Experimental findings from patent US20120190669A1, “OXINDOLE COMPOUNDS” (CYLENE PHARMACEUTICALS, INC., priority 2008, published 2012) are described below.

Sequence of recombinant PIM-1 (P11309 whole entry): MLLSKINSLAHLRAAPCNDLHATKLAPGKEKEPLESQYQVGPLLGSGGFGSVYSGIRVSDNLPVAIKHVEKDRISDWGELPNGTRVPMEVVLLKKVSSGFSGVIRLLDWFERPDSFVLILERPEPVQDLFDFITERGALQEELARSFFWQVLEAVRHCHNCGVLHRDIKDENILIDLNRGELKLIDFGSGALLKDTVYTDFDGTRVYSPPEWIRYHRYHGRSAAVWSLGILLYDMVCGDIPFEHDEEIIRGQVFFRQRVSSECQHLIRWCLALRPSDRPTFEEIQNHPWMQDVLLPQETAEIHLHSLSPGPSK

The first assay deals with recombinant PIM-1 (Homo sapiens, UniProt P11309). Put plainly: PIM-1 kinase assay (radiometric, 15 uM ATP, DMSO 4%). In kind it is biochemical. The conditions noted are these: Table 1; % inhibition at the high dose (2 micromolar) in a single screening assay; 15 μM ATP. The procedure:
The following procedure was used to assay the PIM-1 kinase activity of compounds of the invention. Other methods for assaying PIM-1 and other PIM kinases, as well as methods to assay for activity against the various kinases in FIG. 1, are known in the art.
(specific activity approx. 500 cpm/pmol), DMSO 4% and test inhibitor compound at the required concentration. The reaction was initiated by the addition of the Magnesium ATP mixture. After 40 min incubation at 23° C., the reactions were quenched by the addition of 100 ul 0.75% Phosphoric acid, and the labeled peptide collected by filtration through a phosphocellulose filter plate. The plate was washed 4 times with 0.075% phosphoric acid (100 ul per well) and then, after the addition of scintillation fluid (20 ul per well), the counts were measured by a scintillation counter.
For orientation: inhibition means the change of the read-out against control, counted positive when it falls. As for `CN1C(=O)/C(=C/c2ccc(-c3cccc(C(=O)O)c3)o2)c2ccccc21` [Compound 2], the inhibition at 2 µM came out at 31.6%.

`O=C1Nc2ccc(C(=O)O)cc2/C1=C\c1ccc(-c2cccc(C(=O)NCCN3CCCC3)c2)o1` [Compound 6]: the inhibition at 2 µM amounted to 32.3%.

`COCCNC(=O)c1ccc2c(c1)/C(=C\c1ccc(-c3cccc(C(=O)NCCN4CCCC4)c3)o1)C(=O)N2` [Compound 7]: the inhibition at 2 µM was found to be 32.7%.

For the compound `O=C1Nc2ccc(C(=O)NCc3ccccc3)cc2/C1=C\c1ccc(-c2cccc(C(=O)NCCN3CCCC3)c2)o1` [Compound 8], the inhibition at 2 µM is 11.5%.

As to `O=C1Nc2ccc(C(=O)NC3CC3)cc2/C1=C\c1ccc(-c2cccc(C(=O)NCCN3CCCC3)c2)o1` [Compound 9], the inhibition at 2 µM amounted to 37.2%.

With `O=C1Nc2ccccc2/C1=C\c1ccc(-c2ccc(Cl)c(C(=O)NCCN3CCCC3)c2)o1` [Compound 11], the inhibition at 2 µM is 5.6%.

With `O=C1Nc2ccc(F)cc2/C1=C\c1ccc(-c2ccc(Cl)c(C(=O)NCCN3CCCC3)c2)o1` [Compound 12], the “PIM-1 Inhibition @ 15 μM ATP” value is recorded as 35.20%.

Take `COCCNC(=O)c1cccc(-c2ccc(/C=C3/C(=O)Nc4ccc(F)cc43)o2)c1` [Compound 17]: the inhibition at 2 µM came out at 49.6%.

Consider `Cc1cnc(CNC(=O)c2cccc(-c3ccc(/C=C4/C(=O)Nc5ccc(F)cc54)o3)c2)cn1` [Compound 18], for which the inhibition at 2 µM is 42.3%.

With `O=C1Nc2ccc(F)cc2/C1=C\c1ccc(-c2cccc(C(=O)N3CCOCC3)c2)o1` [Compound 19], the inhibition at 2 µM was determined as 42.2%.

Regarding `O=C1Nc2ccc(F)cc2/C1=C\c1ccc(-c2cccc(C(=O)NC3CC3)c2)o1` [Compound 20], the inhibition at 2 µM stood at 46%.

As for `O=C1CN(C(=O)c2cccc(-c3ccc(/C=C4/C(=O)Nc5ccccc54)o3)c2)CCN1` [Compound 23], the inhibition at 2 µM is -14.2%.

Turning to `CN(C)CCNC(=O)c1cc(-c2ccc(/C=C3/C(=O)Nc4ccccc43)o2)ccc1Cl` [Compound 24], the inhibition at 2 µM turned out to be 36.7%.

`CN1CC(NC(=O)c2cc(-c3ccc(/C=C4/C(=O)Nc5ccccc54)o3)ccc2Cl)C1` [Compound 25]: the inhibition at 2 µM was -15.8%.

`CN1CCN(C(=O)c2cc(-c3ccc(/C=C4/C(=O)Nc5ccccc54)o3)ccc2Cl)CC1` [Compound 26]: the inhibition at 2 µM is -18.8%.

Regarding `CN1CCC(NC(=O)c2cc(-c3ccc(/C=C4/C(=O)Nc5ccccc54)o3)ccc2Cl)CC1` [Compound 27], the inhibition at 2 µM was -16.9%.

Consider `O=C1Nc2ccccc2/C1=C\c1ccc(-c2ccc(Cl)c(C(=O)NCCC3CCCN3)c2)o1` (stereo not drawn) [Compound 28], for which the inhibition at 2 µM was -37.6%.

For the compound `O=C1Nc2ccccc2/C1=C\c1ccc(-c2ccc(Cl)c(C(=O)NCC3CCCN3)c2)o1` (stereo not drawn) [Compound 29], the inhibition at 2 µM is -33.4%.

In the case of `COC(=O)c1ccccc1-c1ccc(/C=C2/C(=O)Nc3ccc(F)cc32)o1` [Compound 30], the inhibition at 2 µM is -6.8%.

Take `O=C1Nc2ccccc2/C1=C\c1ccc(-c2ccccc2C(=O)O)o1` [Compound 31]: the inhibition at 2 µM turned out to be 11.4%.

`O=C1Nc2cc(F)ccc2/C1=C\c1ccc(-c2cccc(C(=O)NCCN3CCCC3)c2)o1` [Compound 39]: the inhibition at 2 µM was 21%.

For the compound `CN1CCCCC1CNC(=O)c1cccc(-c2ccc(/C=C3/C(=O)Nc4cc(F)ccc43)o2)c1` (stereo not drawn) [Compound 40], the inhibition at 2 µM was determined as 33.9%.

As to `O=C1Nc2c(Cl)cccc2/C1=C\c1ccc(-c2cccc(C(=O)NCCN3CCCC3)c2)o1` [Compound 41], the inhibition at 2 µM came to 19%.

For the compound `CN1CCCCC1CNC(=O)c1cccc(-c2ccc(/C=C3/C(=O)Nc4c(Cl)cccc43)o2)c1` (stereo not drawn) [Compound 42], the inhibition at 2 µM stood at 9.73%.

With `O=C1Nc2ccc(Cl)cc2/C1=C\c1ccc(-c2cccc(C(=O)NCCN3CCCC3)c2)o1` [Compound 43], the inhibition at 2 µM is 32.7%.

Turning to `CN1CCCCC1CNC(=O)c1cccc(-c2ccc(/C=C3/C(=O)Nc4ccc(Cl)cc43)o2)c1` (stereo not drawn) [Compound 44], the inhibition at 2 µM was -9.22%.

Take `CN1CCCCC1CNC(=O)c1cccc(-c2ccc(/C=C3/C(=O)Nc4cccc(Br)c43)o2)c1` (stereo not drawn) [Compound 45]: the inhibition at 2 µM was -21.9%.

Take `CN1CCCCC1CNC(=O)c1cccc(-c2ccc(/C=C3/C(=O)Nc4ccc(C#N)cc43)o2)c1` (stereo not drawn) [Compound 46]: the inhibition at 2 µM is -0.36%.

For `O=C1Nc2ccc(C(F)(F)F)cc2/C1=C\c1ccc(-c2cccc(C(=O)NCCN3CCCC3)c2)o1` [Compound 47], the inhibition at 2 µM is 22.9%.

Take `CN1CCCCC1CNC(=O)c1cccc(-c2ccc(/C=C3/C(=O)Nc4ccc(C(F)(F)F)cc43)o2)c1` (stereo not drawn) [Compound 48]: the inhibition at 2 µM is -4.56%.

Regarding `O=C1Nc2cc(C(F)(F)F)ccc2/C1=C\c1ccc(-c2cccc(C(=O)NCCN3CCCC3)c2)o1` [Compound 49], the inhibition at 2 µM was determined as 2.7%.

For `O=C1Nc2c(cccc2C(F)(F)F)/C1=C\c1ccc(-c2cccc(C(=O)NCCN3CCCC3)c2)o1` [Compound 50], the inhibition at 2 µM came out at 8.16%.

As to `CN1CCCCC1CNC(=O)c1cccc(-c2ccc(/C=C3/C(=O)Nc4c3cccc4C(F)(F)F)o2)c1` (stereo not drawn) [Compound 51], the inhibition at 2 µM was determined as 2.32%.

In the case of `O=C1Nc2ccc([N+](=O)[O-])cc2/C1=C\c1ccc(-c2cccc(C(=O)NCCN3CCCC3)c2)o1` [Compound 52], the inhibition at 2 µM came out at 20.4%.

For the compound `CN1CCCCC1CNC(=O)c1cccc(-c2ccc(/C=C3/C(=O)Nc4ccc([N+](=O)[O-])cc43)o2)c1` (stereo not drawn) [Compound 53], the inhibition at 2 µM was determined as 23.5%.

On to `O=C1Nc2ccccc2/C1=C\c1ccc(-c2ccccc2C(=O)NCCN2CCCC2)o1` [Compound 54], for which the inhibition at 2 µM was found to be 3.52%.

Regarding `CN(CCN1CCCC1)C(=O)c1ccccc1-c1ccc(/C=C2/C(=O)Nc3ccccc32)o1` [Compound 55], the inhibition at 2 µM was 2.91%.

In the case of `CN1CCCC(NC(=O)c2ccccc2-c2ccc(/C=C3/C(=O)Nc4ccccc43)o2)C1` (stereo not drawn) [Compound 56], the inhibition at 2 µM stood at 13.8%.

Take `CCN1CCCC1CNC(=O)c1cccc(-c2ccc(/C=C3/C(=O)Nc4ccccc43)o2)c1` (stereo not drawn) [Compound 57]: the inhibition at 2 µM was 10.6%.

For the compound `CN1CCC(N(C)C(=O)c2ccccc2-c2ccc(/C=C3/C(=O)Nc4ccccc43)o2)C1` (stereo not drawn) [Compound 58], the inhibition at 2 µM came to 7.15%.

In the case of `Cn1cncc1CNC(=O)c1ccccc1-c1ccc(/C=C2/C(=O)Nc3ccccc32)o1` [Compound 59], the inhibition at 2 µM was -4.35%.

In the case of `CN1CCCCC1CNC(=O)c1ccccc1-c1ccc(/C=C2/C(=O)Nc3ccccc32)o1` (stereo not drawn) [Compound 60], the inhibition at 2 µM was 0.33%.

Take `CN(C)C1CCN(C(=O)c2ccccc2-c2ccc(/C=C3/C(=O)Nc4ccccc43)o2)CC1` [Compound 61]: the inhibition at 2 µM is -2.65%.

Take `O=C1Nc2ccc(F)cc2/C1=C\c1ccc(-c2ccccc2C(=O)NCCN2CCCC2)o1` [Compound 62]: the inhibition at 2 µM is 0.28%.

As for `CN1CCCC(NC(=O)c2ccccc2-c2ccc(/C=C3/C(=O)Nc4ccc(F)cc43)o2)C1` (stereo not drawn) [Compound 63], the inhibition at 2 µM was 10.3%.

In the case of `CN1CCC(N(C)C(=O)c2ccccc2-c2ccc(/C=C3/C(=O)Nc4ccc(F)cc43)o2)C1` (stereo not drawn) [Compound 64], the inhibition at 2 µM came to 18.2%.

The same assay, now with this note: Table 1; given for compounds with IC50 at or below 2 micromolar; 15 uM ATP; read-out: PIM-1 IC50.
As a reminder, the IC50 is the concentration needed to halve the response being measured. Regarding `CCN(CC)CCNC(=O)c1cccc(-c2ccc(/C=C3/C(=O)Nc4ccccc43)o2)c1` [Compound 4], the IC50 is less than 1000 nM.

Turning to `COC(=O)c1ccc2c(c1)/C(=C\c1ccc(-c3cccc(C(=O)NCCN4CCCC4)c3)o1)C(=O)N2` [Compound 5], the IC50 was less than 1000 nM.

As to `O=C1Nc2ccc(F)cc2/C1=C\c1ccc(-c2cccc(C(=O)O)c2)o1` [Compound 10], the IC50 is less than 2000 nM.

As to `O=C1Nc2ccc(F)cc2/C1=C\c1ccc(-c2cc(C(=O)NCCN3CCCC3)ccc2Cl)o1` [Compound 13], the IC50 was less than 2000 nM.

In the case of `O=C1Nc2ccccc2/C1=C\c1ccc(-c2cc(C(=O)NCCN3CCCC3)ccc2Cl)o1` [Compound 14], the IC50 was less than 2000 nM.

With `O=C1Nc2ccc(F)cc2/C1=C\c1ccc(-c2cccc(C(=O)NCc3ccncc3)c2)o1` [Compound 21], the IC50 is less than 2000 nM.

Take `Cn1cncc1CNC(=O)c1cccc(-c2ccc(/C=C3/C(=O)Nc4ccc(F)cc43)o2)c1` [Compound 22]: the IC50 is less than 1000 nM.

In the case of `CCN1CCCC1CNC(=O)c1ccc(-c2ccc(/C=C3/C(=O)Nc4ccccc43)o2)cc1` (stereo not drawn) [Compound 32], the IC50 is less than 1000 nM.

With `CN1CCCC1N(C)C(=O)c1ccc(-c2ccc(/C=C3/C(=O)Nc4ccccc43)o2)cc1` (stereo not drawn) [Compound 33], the IC50 is less than 1000 nM.

In the case of `CN(CCN1CCCC1)C(=O)c1ccc(-c2ccc(/C=C3/C(=O)Nc4ccccc43)o2)cc1` [Compound 34], the IC50 is less than 1000 nM.

Turning to `CN1CCCC(NC(=O)c2ccc(-c3ccc(/C=C4/C(=O)Nc5ccccc54)o3)cc2)C1` (stereo not drawn) [Compound 35], the IC50 was less than 1000 nM.

For the compound `Cn1cncc1CNC(=O)c1ccc(-c2ccc(/C=C3/C(=O)Nc4ccccc43)o2)cc1` [Compound 36], the IC50 was less than 1000 nM.

`CN1CCCCC1CNC(=O)c1ccc(-c2ccc(/C=C3/C(=O)Nc4ccccc43)o2)cc1` (stereo not drawn) [Compound 37]: the IC50 is less than 2000 nM.

`CN(C)C1CCN(C(=O)c2ccc(-c3ccc(/C=C4/C(=O)Nc5ccccc54)o3)cc2)CC1` [Compound 38]: the IC50 is less than 2000 nM.

Still in this assay, the particulars now being: Table 3; DMSO 4%; read-out: PIM1: IC50 (DMSO 4%).
Turning to `CN1CCCN(C(=O)c2cccc(-c3ccc(/C(=C4/C(=O)Nc5ccc(Cl)cc54)C4CC4)o3)c2)CC1`, the IC50 was more than 1100 nM.

For `CN1CCN(c2ccc(-c3ccc(/C=C4\C(=O)Nc5ccc(Cl)cc54)o3)cn2)CC1`, the IC50 is less than 1000 nM.

In the case of `CN1CCCN(C(=O)c2ccc(Cl)c(-c3ccc(/C=C4/C(=O)Nc5ccc(F)cc54)o3)c2)CC1`, the IC50 was less than 1000 nM.
